Assay results taken from PubChem BioAssay AID330 (DTP/NCI, 2004).
Inconclusive results and toxic doses are left out. Rule for the calls: active = survival T/C of 150% or more; inactive = T/C below 125% in these data.

System: P388 leukemia ip, CD2F1 mice, survival T/C
Assay: NCI In Vivo Anticancer Drug Screen. Data for tumor model P388 Leukemia (intraperitoneal) in CD2F1 (CDF1) mice
Conditions: endpoint: median survival time, higher = longer survival
Summary of the method: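 Mice carrying the transplanted tumor received test compound or vehicle. Survival was recorded in each group, and the value is the treated-group measurement divided by that of the vehicle-treated control group.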

[1] = dose: 60.0 mg/kg/injection, schedule: Q01DX005 (ip), vehicle: saline with Tween-80
[2] = dose: 120.0 mg/kg/injection, schedule: Q01DX005 (ip), vehicle: saline with Tween-80
[3] = dose: 240.0 mg/kg/injection, schedule: Q01DX005 (ip), vehicle: saline with Tween-80
[4] = dose: 50.0 mg/kg/injection, schedule: Q01DX009 (ip), vehicle: Klucel (hydroxypropylcellulose) (HPC)
[5] = dose: 100.0 mg/kg/injection, schedule: Q01DX009 (ip), vehicle: Klucel (hydroxypropylcellulose) (HPC)
[6] = dose: 200.0 mg/kg/injection, schedule: Q01DX009 (ip), vehicle: Klucel (hydroxypropylcellulose) (HPC)

Measured: T/C

CCOC(=O)c1cn(C2OC(CO)C(O)C2O)c(=O)nc1N (stereo not drawn)
inactive: dose: 50.0 mg/kg/injection, schedule: Q04DX003 (ip), vehicle: saline 99 % of control | dose: 100.0 mg/kg/injection, schedule: Q04DX003 (ip), vehicle: saline 100 % of control | dose: 200.0 mg/kg/injection, schedule: Q04DX003 (ip), vehicle: saline 100 % of control | dose: 400.0 mg/kg/injection, schedule: Q04DX003 (ip), vehicle: saline 102 % of control

COc1ccc(C(C)c2cc3c(cc2OCCO)OCO3)cc1O (stereo not drawn)
inactive: dose: 50.0 mg/kg/injection, schedule: Q01DX005 (ip), vehicle: distilled water + Tween-80 97 % of control | dose: 100.0 mg/kg/injection, schedule: Q01DX005 (ip), vehicle: distilled water + Tween-80 99 % of control | dose: 200.0 mg/kg/injection, schedule: Q01DX005 (ip), vehicle: distilled water + Tween-80 98 % of control

C[N+](C)(C)/N=C(/c1ccccc1)C1CCCCC1
inactive: dose: 12.5 mg/kg/injection, schedule: Q01DX001 (ip), vehicle: Klucel (hydroxypropylcellulose) (HPC) 91 % of control | dose: 25.0 mg/kg/injection, schedule: Q01DX001 (ip), vehicle: Klucel (hydroxypropylcellulose) (HPC) 100 % of control | dose: 50.0 mg/kg/injection, schedule: Q01DX001 (ip), vehicle: Klucel (hydroxypropylcellulose) (HPC) 97 % of control

COc1cccc(C(Nc2nncs2)Nc2nncs2)c1OC
inactive: [1] 87 % of control | [2] 91 % of control | [3] 100 % of control

CC1(C)CC2(C)OC2C2(C1)N=NC(=O)O2 (stereo not drawn)
inactive: dose: 50.0 mg/kg/injection, schedule: Q01DX009 (ip), vehicle: saline + alcohol 90 % of control | dose: 50.0 mg/kg/injection, schedule: Q01DX009 (ip), vehicle: saline with Tween-80 89 % of control | dose: 100.0 mg/kg/injection, schedule: Q01DX009 (ip), vehicle: saline + alcohol 100 % of control | dose: 100.0 mg/kg/injection, schedule: Q01DX009 (ip), vehicle: saline with Tween-80 87 % of control | dose: 200.0 mg/kg/injection, schedule: Q01DX009 (ip), vehicle: saline + alcohol 93 % of control | dose: 400.0 mg/kg/injection, schedule: Q01DX009 (ip), vehicle: saline + alcohol 108 % of control

CCCCCCCCCCCCCCCCCC[N+]1([O-])CCOCC1
inactive: dose: 50.0 mg/kg/injection, schedule: Q01DX009 (ip), vehicle: saline 98 % of control | dose: 100.0 mg/kg/injection, schedule: Q01DX009 (ip), vehicle: saline 96 % of control

O=C1C2C3CCC(O3)C2C(=O)N1SC(Cl)(Cl)Cl (stereo not drawn)
inactive: dose: 3.12 mg/kg/injection, schedule: Q01DX009 (ip), vehicle: saline 101 % of control | dose: 6.25 mg/kg/injection, schedule: Q01DX009 (ip), vehicle: saline 108 % of control | dose: 12.5 mg/kg/injection, schedule: Q01DX009 (ip), vehicle: saline 100 % of control

COCC(=O)Nc1ncc([N+](=O)[O-])s1
inactive: [4] 102 % of control | [5] 100 % of control | [6] 94 % of control

CN(C)c1nc(N(C)C)oc(=[N+](C)C)n1
inactive: dose: 6.25 mg/kg/injection, schedule: Q01DX005 (ip), vehicle: saline 106 % of control | dose: 12.5 mg/kg/injection, schedule: Q01DX005 (ip), vehicle: saline 103 % of control | dose: 25.0 mg/kg/injection, schedule: Q01DX005 (ip), vehicle: saline 113 % of control

C/C(CCl)=N/NC1=NC(C)(CCC2(C)N=C(N/N=C(/C)CCl)SP2(=O)NC23CC4CC(CC(C4)C2)C3)P(=O)(NC23CC4CC(CC(C4)C2)C3)S1 (stereo not drawn)
inactive: [1] 105 % of control | [2] 100 % of control | [3] 91 % of control

O=C1CCc2nc3ccccc3c(=O)n21
inactive: [4] 96 % of control | [5] 96 % of control | [6] 94 % of control | dose: 400.0 mg/kg/injection, schedule: Q01DX009 (ip), vehicle: Klucel (hydroxypropylcellulose) (HPC) 100 % of control

COc1ccc(S(=O)(=O)N2OC2c2ccccc2)cc1 (stereo not drawn)
inactive: [4] 100 % of control | [5] 100 % of control

Cc1cc(=O)oc2c3c4c(cc12)CCCN4CCC3
inactive: dose: 100.0 mg/kg/injection, schedule: Q04DX003 (ip), vehicle: Klucel (hydroxypropylcellulose) (HPC) 111 % of control | dose: 200.0 mg/kg/injection, schedule: Q04DX003 (ip), vehicle: Klucel (hydroxypropylcellulose) (HPC) 109 % of control

C[N+](C)(Cn1nc(Cl)c2cc([N+](=O)[O-])ccc21)Cn1nc(Cl)c2cc([N+](=O)[O-])ccc21
inactive: dose: 50.0 mg/kg/injection, schedule: Q04DX003 (ip), vehicle: saline with Tween-80 93 % of control | dose: 200.0 mg/kg/injection, schedule: Q04DX003 (ip), vehicle: saline with Tween-80 88 % of control
